The subject of assay [1] is Colo357-FG. Briefly: MTS cytotoxicity assay, 72 hours drug exposure, Colo357-FG pancreatic cancer cells. It is filed as cell-based. Conditions: Homo sapiens, COLO 357/FG, final DMSO 0.5%. On the procedure:
(§1) In the first set of assays, IC50 values were determined for each compound after 72 hours of drug exposure in each of the tumor cell lines. Cell lines tested include D54, U87, Panc-1, AsPc-1, Colo357-FG, L3.6, H226, H352, H441 cell lines.
COLO 357 FG is continuous human cell line, COLO 357, with exceptional characteristics was derived from a metastasis of a pancreatic adenocarcinoma. COLO 357 grew as an adhering monolayer with a cell doubling time of 21 h and grew with 10% clonal efficiency in soft agar. COLO 357 cells had numerous lamellar inclusions. The cells elaborated the pancreatic enzymes trypsin, elastase and chymotrypsin. COLO 357 also secreted appreciable amounts of carcinoembryonic antigen and human chorionic gonadotropin. […] Nine nucleolar organizing regions were found by silver-stained metaphase preparations. COLO 357 has been “fingerprinted” for seven allelic isozymes.
(§2) All cell lines were maintained in respective growth media at 37° C., 5% CO2 and 98% humidity. Cells were treated with the compounds and all drug concentrations were diluted so that the final concentration of DMSO is 0.5%. The cytotoxic effect was measured by the MTS Assay (Tetrazolium), which is a colorimetric method for determining the number of viable cells. After the 72 hours of incubation with drug, Promega's MTS reagent were added to the cells according to manufacturer's instructions and incubated for 2 hours. The plates were read at 490 nm and the resulting data graphed with GraphPad Prism 5 software.
(§3) IC50 was calculated, which is approximate equivalent of IG50 (concentration at which 50% growth inhibition is measured). The IC50 values represent […] of the drug concentration.

Assay [2] has as its system U87. The experiment in a line: MTS cytotoxicity assay, 72 hours drug exposure, U87 brain tumor cells. The class given is cell-based. Conditions: Homo sapiens, U-87 MG, final DMSO 0.5%. On the procedure:
as §1
U87 is a human primary glioblastoma cell line formally known as U-87 MG. It has epithelial morphology, and was obtained from a patient with stage four cancer. U-87 MG can be obtained from the American Type Culture Collection (ATCC) where it is known by the accession number HTB-14. The entire sequence of the genome of U-87 MG has recently been published in PLoS Genetics, 2010 January; 6(1): e1000832. This is a hypodiploid human cell line with the modal chromosome number of 44 occurring in 48% of cells. The rate of higher ploidy was 5.9%. Twelve markers were common to all cells, including der(1)t(1;3) (p22;q21), der(16)t(1;16) (p22;p12), del(9) (p13) and nine others. The marker der(1) had two copies in most cells. There was only one copy of normal X. N1, N6 and N9 were not found.
as §2, §3
A general note: Tetrazolium assays rely on reduction of a dye to a coloured formazan, in cell work by metabolically active cells.

Consider `CCCC(CCC)C(=O)O[C@H]1C[C@@H](O)[C@H](O)[C@@H](CO)O1` [WP1490, 1-O-Valproyl-2-Deoxy-β-D-Glucopyranose], for which the IC50 – broadly, the midpoint of a concentration-inhibition curve – came out at 2000 µM in assay [1] and 2400 µM in assay [2].

Take `CCCC(CCC)C(=O)OC[C@H]1OC(O)C[C@@H](O)[C@@H]1O` (stereo partly drawn) [WP1491, 6-O-Valproyl-2-Deoxy-D-Glucopyranose]: 2100 µM corresponded to half-maximal inhibition in assay [2] (IC50). In assay [2], `CCC(CC)C(=O)OC1CC(O)C(O)C(CO)O1` [WP1474, 1-O-(2-Ethyl)Butyryl-2-Deoxy-β-D-Glucopyranose] yielded an IC50 of 2400 µM. Consider `CCC(=O)OCC1OC(O)CC(OC(=O)CC)C1O` (centres unmarked) [WP1231], for which the IC50 in assay [1] amounted to 550 µM; in assay [2] it was 380 µM. `CCCC(CCC)C(=O)O[C@@H]1CC(O)O[C@H](CO)[C@H]1O` (stereo partly drawn) [WP1512, 3-O-Valproyl-2-Deoxy-D-Glucopyranose] returned a concentration for half-maximal inhibition (IC50) in assay [2] of 740 µM. `CCC(CC)C(=O)OCC1OC(O)CC(OC(=O)C(CC)CC)C1O` (centres unmarked) [WP1234]: the 50% inhibitory concentration (IC50) in assay [1] stood at 100 µM; in assay [2], 55 µM. Take `CCC(CC)C(=O)OC1CC(O)OC(CO)C1O` [WP1342, 3-O-(2-Ethyl)Butyryl-2-Deoxy-D-Glucopyranose]: the results for the 50% inhibitory concentration (IC50) in assay [1] and in assay [2] were 13200 µM and 2400 µM, respectively. In assay [2], `CCCC(=O)OC[C@H]1OC(OC(=O)CCC)C[C@@H](O)[C@@H]1O` (stereo partly drawn) [WP1217, 1,6-Di-O-Butyryl-2-Deoxy-D-Glucopyranose] showed an IC50 of 2330 µM.

Consider `CCC(CC)C(=O)OCC1OC(O)CC(O)C1OC(=O)C(CC)CC` [WP1241, 4,6-Di-O-(2-Ethyl)Butyryl-2-Deoxy-α-D-Glucopyranose], for which the half-inhibitory concentration (IC50) worked out at 280 µM in assay [1] and 123 µM in assay [2]. The like results for `CCCC(=O)OCC1OC(O)CC(OC(=O)CCC)C1O` (centres unmarked) [WP1213] were, in that order, 380 µM and 240 µM.

On to `CCC(=O)OCC1OC(O)CC(O)C1OC(=O)CC` (centres unmarked) [WP1242], for which the results for the half-inhibitory concentration (IC50) in assay [1] and in assay [2] were 6380 µM and 490 µM, respectively. For `CC(C)CC(=O)OCC1OC(O)CC(OC(=O)CC(C)C)C1O` (centres unmarked) [WP1263], the IC50 was 160 µM in assay [1] and 37 µM in assay [2].

In the case of `CCCCC(=O)OC[C@H]1OC(O)C[C@@H](O)[C@@H]1OC(=O)CCCC` (stereo partly drawn) [WP1233, 4,6-Di-O-Valeroyl-2-Deoxy-D-Glucopyranose], the half-inhibitory concentration (IC50) in assay [1] stood at 230 µM; in assay [2], 200 µM. The like results for `CCCC(=O)OC[C@H]1OC(O)C[C@@H](O)[C@@H]1OC(=O)CCC` (stereo partly drawn) [WP1214, 4,6-Di-O-Butyryl-2-Deoxy-D-Glucopyranose] were, in that order, 440 µM and 300 µM. The matching figures for `O=C(OCC1OC(O)CC(OC(=O)C2CCCC2)C1O)C1CCCC1` (centres unmarked) [WP1343]: 750 µM and 109 µM.

As to `CCC(=O)OC1CC(O)C(O)C(CO)O1` (centres unmarked) [WP1216], the midpoint of inhibition in assay [2], the IC50, lay at 3580 µM. As to `CCC(CC)C(=O)OCC1OCC(O)C(OC(=O)C(CC)CC)C1O` (centres unmarked) [WP1357], the half-inhibitory concentration (IC50) in assay [1] was 540 µM. On to `CCC(CC)C(=O)OCC1OCCC(OC(=O)C(CC)CC)C1O` (centres unmarked) [WP1317], for which the 50% inhibitory concentration (IC50) in assay [1] and in assay [2] was 2100 µM each time. For the compound `CCC(CC)C(=O)OCC1OC(O)CC(O)C1O` [WP1319, 6-O-(2-Ethyl)Butyric-2-Deoxy-D-Glucopyranose], the results for the IC50 in assay [1] and in assay [2] were 1700 µM and 3000 µM, respectively. Take `CCC(CC)C(=O)OC1CC(OC(=O)C(CC)CC)C(O)C(CO)O1` [WP1261, 1,3-Di-O-(2-Ethyl)Butyryl-2-Deoxy-β-D-Glucopyranose]: the IC50 turned out to be 340 µM in assay [1] and 741 µM in assay [2]. `CCCCC(=O)OCC1OC(O)CC(OC(=O)CCCC)C1O` (centres unmarked) [WP1232]: the half-inhibitory concentration (IC50) in assay [1] came out at 490 µM; in assay [2] it was 250 µM. Turning to `CCCC(CCC)C(=O)O[C@H]1[C@H](O)CC(O)O[C@@H]1CO` (stereo partly drawn) [WP1513, 4-O-Valproyl-2-Deoxy-D-Glucopyranose], the 50% inhibitory concentration (IC50) in assay [1] and in assay [2] was 1200 µM in each case.

The values are drawn from patent US11925654B2, “Esters of 2-deoxy-monosaccharides with anti proliferative activity” (Board of Regents, The University of Texas System, priority 2013, dated 2024).
